Patent US12060329B1, “6′-(2-bromophenyl)-2′-ethoxy-3,4′-bipyridine-3′-carbonitrile as an antioxidant compound” (KING FAISAL UNIVERSITY, priority 2023, dated 2024)

Assay: DPPH radical scavenging antioxidant test
Format: biochemical
Conditions: 517 nm; for Inhibition (radical scavenging inhibition): compound 3 μM in ethanol, 0.2 mL DPPH (0.75 mM), 30 minutes in the dark
Method: The antioxidant activity of 6′-(2-bromophenyl)-2′-ethoxy-3,4′-bipyridine-3′-carbonitrile was investigated by 2,2-diphenyl-1-picrylhydrazyl (DPPH) in vitro tests that employ vitamin C as the positive control.
The antioxidant properties of the 6′-(2-bromophenyl)-2′-ethoxy-3,4′-bipyridine-3′-carbonitrile compound were studied by adding 0.2 mL DPPH (0.75 mM)) to 6′-(2-bromophenyl)-2′-ethoxy-3,4′-bipyridine-3′-carbonitrile (3 μM) (4) in ethanol. After 30 minutes of incubation in the dark, the absorbance was read against a blank at 517 nm. Ascorbic acid (vitamin C) was used as standard antioxidants (positive control). A blank sample was prepared by 0.2 mL of DPPH in 3 mL ethanol. A negative control sample was run using ethanol instead of the sample. The radical scavenging inhibition was calculated using the following equation: […]
The antioxidant activity for the synthesized compound is listed in Table 1, using Vitamin C as a reference.

SMILES	antioxidant potential to vanish the DPPH radical colors (in words) (DPPH in vitro test, vitamin C as positive control)	Inhibition (radical scavenging inhibition)
CCOc1nc(-c2ccccc2Br)cc(-c2cccnc2)c1C#N [Product 4, 6′-(2-bromophenyl)-2′-ethoxy-3,4′-bipyridine-3′-carbonitrile]	high potential as an antioxidant compared to vitamin C	50%
O=C1O[C@H]([C@@H](O)CO)C(O)=C1O [vit c, Ascorbic acid, reference compound]		74%
